Test results: patent US9381196B2, “Compounds, pharmaceutical compositions and methods of use of hydroxamic acid derivatives” (THE TRANSLATIONAL GENOMICS RESEARCH INSTITUTE, priority 2008, dated 2016)
Where two headings read alike, the source gives them in different places.

Assays:
[1] = system: Skov-3 cells; assay: CellTiter-Blue cell viability assay, SKOV3 cell line; type: cell-based; conditions: cell growth inhibition
Excerpt: Cell viability in the presence of varying concentrations of the above listed aspects of the disclosed compound at different time points was used to assess cytotoxicity and the effect of the disclosed compound on cell proliferation.

[2] = system: MiaPaca cells; assay: CellTiter-Blue cell viability assay, MiaPaCa cell line; type: cell-based, human; conditions: cell growth inhibition
Excerpt: (§6) Where X is the logarithm of concentration and Y is the response. Y starts at the Bottom and goes to Top with a sigmoid shape.

[3] = system: mdamb231 cells; assay: CellTiter-Blue cell viability assay, mdamb231 cell line; type: cell-based; conditions: cell growth inhibition
Excerpt: as §6

[4] = system: A2780 cell line; conditions: 72 hours treatment
Method: (§1) Cell viability was measured by the CellTiter-Blue® cell viability assay Promega (Madison, Wis.). This procedure measures the conversion of the indicator dye (resazurin) to resorufin, an indicator of cell viability. Following treatment, growth media was removed and cells were incubated with 20 μl of CellTiter-Blue® Reagent and growth media for 1-4 hours at 37° C. Fluorescence values were measured at 535/590 nm using a Beckman-Coulter DTX-880 microplate reader.
(§2) Cells were grown to 70% confluency, trypsinized, counted, and seeded in 96 well flat-bottom plates at a final concentration of 2.5×10^3-5×10^3 cells/well (Day 0). Cells were allowed to incubate in growth media for 24 hours to allow for maximum adhesion. Treatment with the test agents or standard agents began on Day 1 and continued for 72 hours. At the 72 hour timepoint, treatment including media was removed. Viable cell numbers are quantified by the CellTiter-Blue® cell viability assay as described above. Experiments were repeated at least twice with the same concentrations to determine growth inhibitory activity.
(§3) Single agent and combination studies, data from each experiment was collected and expressed as % Cell Growth using the following calculation: % Cell Growth=(ftest/fvehicle)×100
(§4) Where ftest is the fluorescence of the tested sample, and fvehicle is the fluorescence of the vehicle in which the drug is dissolved. Dose response graphs and IC50 values were generated using Prism 4 software (GraphPad) using the following equation: […]
(§5) Where X is the logarithm of concentration and Y is the response.

[5] = system: H23 cell line; conditions: 72 hours treatment
Method: as §1, §2, §3, §4, §5

[6] = system: H295R cell line; conditions: 72 hours treatment
Method: as §1, §2, §3, §4, §5

[7] = system: MV522 cell line; conditions: 72 hours treatment
Method: as §1, §2, §3, §4, §5

[8] = system: PANC-1 cell line; conditions: 72 hours treatment
Method: as §1, §2, §3, §4, §5

[9] = system: VCAP cell line; conditions: 72 hours treatment
Method: as §1, §2, §3, §4, §5

[10] = system: MIA PaCa-2 human pancreas cells xenograft; conditions: MIA PaCa-2 xenograft in nude mice
Method: In vivo efficacy of the disclosed compound was tested through a human pancreas tumor xenograft model. Female Ncr nude mice were inoculated with 1×10^7 MIA PaCa-2 human pancreas cells suspended in a mixture of 50% Matrigel and 50% tissue culture media in a total volume of […] When the tumors reached a mean weight of 157 mg, the mice were separated into four groups of 7-8 mice per group and treated. One group was treated with vehicle only. A second group was treated with Compound ID #15 at 50 mg/kg. A third group was treated with Compound ID #15 at 100 mg/kg and a fourth group was treated with Gemcitabine at 80 mg/kg. Vehicle and Compound ID #15 were administered by mouth while Gemcitabine was administered via an intraperitoneal injection. Body weights and tumor size data were collected twice weekly. Tumor width and length were measured in millimeters and converted to tumor weight (in milligrams) using the formula (width^2×Length/2)=tumor weight (mg.)

[11] = Homo sapiens, SK-OV-3, 72 hours treatment
[12] = Homo sapiens, MIA PaCa-2, 72 hours treatment
[13] = Homo sapiens, MDA-MB-231, 72 hours treatment

Question: With “7-(5-bromo-1H-benzimidazol-2-yl)-N-hydroxy heptanamide [Compound ID 15]” as the molecule, how does the IC50 ([1]; 72 hours treatment) read?
Answer: 270 nM

Question: And the IC50 ([2]; 72 hours treatment)?
Answer: 820 nM

Question: What about the IC50 ([3]; 72 hours treatment) of the same molecule?
Answer: 890 nM

Question: And the IC50 [4]?
Answer: 1900 nM

Question: What about the IC50 [5] of the same molecule?
Answer: 560 nM

Question: And the IC50 [6]?
Answer: 180 nM

Question: What about the IC50 [7] of the same molecule?
Answer: 2200 nM

Question: What about the IC50 [8] of the same molecule?
Answer: 130 nM

Question: And the IC50 [9]?
Answer: 2400 nM

Question: What about the “slowing growth of the xenografts” value ([10]; 50 mg/kg by mouth) of the same molecule?
Answer: no more effective than the vehicle control

Question: What about the “slowing growth of the xenografts” value ([10]; 100 mg/kg by mouth, comparator gemcitabine 80 mg/kg intraperitoneal) of the same molecule?
Answer: about as effective as gemcitabine

Question: Which results are given for `O=C(CCCCCCc1nc2ccccc2[nH]1)NO` [Compound ID 14, 7-(1H-benzo[d]imidazol-2-yl)-N-hydroxyheptanamide]?
Answer: IC50 [1, 11]: 2700 nM; IC50 [2, 12]: 1900 nM

Question: Which IC50 [1, 11] does the source give for `O=C(CCCCCc1nc2ccccc2[nH]1)NO` [Compound ID 16, 6-(1H-benzo[d]imidazol-2-yl)-N-hydroxyhexanamide] here?
Answer: 11000 nM

Question: With `COc1ccc2[nH]c(CCCCCCC(=O)NO)nc2c1` [Compound ID 17, N-hydroxy-7-(5-methoxy-1H-benzo[d]imidazol-2-yl)heptanamide] as the molecule, how does the IC50 [1, 11] read?
Answer: > 10000 nM

Question: `O=C(CCCCCCc1nc2cc(-c3ccccc3)ccc2[nH]1)NO` [Compound ID 18, N-hydroxy-7-(5-phenyl-1H-benzo[d]imidazol-2-yl)heptanamide] was tested. Which IC50 [1, 11] did it give?
Answer: 98 nM

Question: And the IC50 [2, 12]?
Answer: 400 nM

Question: `Cn1c(CCCCCCC(=O)NO)nc2ccccc21` [Compound ID 19, N-hydroxy-7-(1-methyl-1H-benzo[d]imidazol-2-yl) heptanamide] was tested. Which IC50 ([1]; 72 hours treatment) did it give?
Answer: 3000 nM

Question: How did the IC50 [1, 11] turn out when `CN(C)c1ccc2[nH]c(CCCCCCC(=O)NO)nc2c1` [Compound ID 20, 7-(5-(dimethylamino)-1H-benzo[d]imidazol-2-yl)-N-hydroxyheptanamide] was run?
Answer: 1200 nM

Question: For `O=C(CCCCCCc1nc2cc(F)ccc2[nH]1)NO` [Compound ID 21, 7-(5-fluoro-1H-benzo[d]imidazol-2-yl)-N-hydroxyheptanamide], which IC50 [1, 11] is on record?
Answer: 1900 nM

Question: `O=C(CCCCCCc1nc2cc(Cl)ccc2[nH]1)NO` [Compound ID 22, 7-(5-chloro-1H-benzo[d]imidazol-2-yl)-N-hydroxyheptanamide] was tested. Which IC50 [1, 11] did it give?
Answer: 320 nM

Question: Which results are given for `O=C(CCCCCCc1nc2ccncc2[nH]1)NO` [Compound ID 23, N-hydroxy-7-(3H-imidazo[4,5-c]pyridin-2-yl)heptanamide]?
Answer: IC50 [1, 11]: > 10000 nM; IC50 [2, 12]: > 10000 nM

Question: How did the IC50 [1, 11] turn out when `O=C(CCCCCCc1nc2ccccc2n1C1CC1)NO` [Compound ID 24, 7-(1-cyclopropyl-1H-benzo[d]imidazol-2-yl)-N-hydroxyheptanamide] was run?
Answer: 9500 nM

Question: What about the IC50 [2, 12] of the same molecule?
Answer: 4000 nM

Question: What does the source list for `O=C(CCCCCCc1nc2ccccc2n1C1CCCC1)NO` [Compound ID 25, 7-(1-cyclopentyl-1H-benzo[d]imidazol-2-yl)-N-hydroxyheptanamide]?
Answer: IC50 [1, 11]: 4800 nM; IC50 [2, 12]: 2300 nM

Question: Which results are given for `O=C(CCCCCCc1nc2c(Cl)cccc2[nH]1)NO` [Compound ID 26, 7-(4-chloro-1H-benzo[d]imidazol-2-yl)-N-hydroxyheptanamide]?
Answer: IC50 [1, 11]: 10200 nM; IC50 [2, 12]: 8500 nM

Question: With `O=C(CCCCCCc1nc2ccccc2n1-c1ccccc1)NO` [Compound ID 27, N-hydroxy-7-(1-phenyl-1H-benzo[d]imidazol-2-yl)heptanamide] as the molecule, how does the IC50 [1, 11] read?
Answer: > 10000 nM

Question: And the IC50 [2, 12]?
Answer: > 10000 nM

Question: What does the source list for `O=C(CCCCCCc1nc2cc(-c3cncnc3)ccc2[nH]1)NO` [Compound ID 28, N-hydroxy-7-(5-(pyrimidin-5-yl)-1H-benzo[d]imidazol-2-yl)heptanamide]?
Answer: IC50 [1, 11]: 2600 nM; IC50 [3, 13]: 540 nM

Question: With `O=C(CCCCCCc1nc2cc(-c3ccc(F)cc3)ccc2[nH]1)NO` [Compound ID 29, 7-(5-(4-fluorophenyl)-1H-benzo[d]imidazol-2-yl)-N-hydroxyheptanamide] as the molecule, how does the IC50 [1, 11] read?
Answer: 1200 nM

Question: And the IC50 [3, 13]?
Answer: 210 nM

Question: With `O=C(CCCCCCc1nc2cc(-c3cccc(F)c3)ccc2[nH]1)NO` [Compound ID 30, 7-(5-(3-fluorophenyl)-1H-benzo[d]imidazol-2-yl)-N-hydroxyheptanamide] as the molecule, how does the IC50 [1, 11] read?
Answer: 1500 nM

Question: And the IC50 [3, 13]?
Answer: 330 nM

Question: How did the IC50 [1, 11] turn out when `CN(C)c1ccc(-c2ccc3[nH]c(CCCCCCC(=O)NO)nc3c2)cc1` [Compound ID 31, 7-(5-(4-(dimethylamino)phenyl)-1H-benzo[d]imidazol-2-yl)-N-hydroxyheptanamide] was run?
Answer: 6600 nM

Question: Which IC50 [1, 11] does the source give for `O=C(CCCCCCc1nc2cc(-c3ccccc3F)ccc2[nH]1)NO` [Compound ID 32, 7-(5-(2-fluorophenyl)-1H-benzo[d]imidazol-2-yl)-N-hydroxyheptanamide] here?
Answer: 7400 nM

Question: How did the IC50 [1, 11] turn out when `COc1ccc(-c2ccc3[nH]c(CCCCCCC(=O)NO)nc3c2)cc1` [Compound ID 33, N-hydroxy-7-(5-(4-methoxyphenyl)-1H-benzo[d]imidazol-2-yl)heptanamide] was run?
Answer: 3200 nM
